Experiments:
[1] = test system: Formosan subterranean termite (Coptotermes formosanus Shiraki); test: Termite field test of aspen waferboards, Hilo; format: in vivo; details: 0.88% preservative
Text: The performance of mixed solubility borate preservatives against termites was investigated in a study using aspen waferboards bonded with either 100% pMDI (in both face and core) or with Phenol Formaldehyde (PF) in the face and pMDI in the core. The boards were made with a target loading of 0.88% preservative utilizing the formulations (blends) described in Table 4. The borates were incorporated into the board by mixing the preservative formulations with the aspen wafers in a blender before addition of the adhesive and wax. Composite board specimens were exposed to the Formosan subterranean termite (Coptotermes formosanus Shiraki) at a field test site in Hilo, Hi. The specimens, along with untreated aspen ‘feeder’ stakes, are placed in a horizontal array on hollow core concrete blocks approximately 10 cm thick. In addition to surrounding the test specimens, the untreated feeder stakes are also driven into the ground in an effort to increase the termite pressure on the test specimens. The assembly is then covered with a wooden box to prevent direct contact with rain. This is a severe test format conducted using a very termite susceptible wood species (aspen).
After 3, 9 and 15 months exposure the boards were rated visually on a scale of 0 to 10 . A rating of 10 indicates the sample was in perfect condition, while a 0 rating means the sample was essentially destroyed. Each result consisted of an average rating from the inspection of 10 separate samples (10 replicates).

mold [2] = test: Mold exposure test on aspen OSB, modified ASTM D 3273-94 (Example 2); format: cell-based; details: for Mold Formation Rating: 4 weeks; for Mold Formation Rating, Average: average over boards and soluble borates
Description: The effectiveness of the mixed solubility wood preservatives of this invention against mold growth was tested on samples of aspen oriented strand board (OSB). Two OSB formulations were evaluated. One type was bonded with pMDI resin at a 6% loading. The other type was bonded with a PF resin face and a pMDI resin core. The OSB samples contained either a mixed solubility borate preservative formulation or a low solubility borate alone, or no preservative in the case of the control samples. The low solubility borate in all cases was zinc borate 2:3:3.5. The two different high solubility borates were tested—disodium octaborate tetrahydrate (DOT) and boric oxide (B2O3), also known as anhydrous boric acid (ABA). The weight ratio of low solubility borate to high solubility borate in the mixed solubility samples was either 80/20 or 60/40. Two different target loadings of preservative in the OSB samples were tested—0.18% and 0.88% by weight.
(§1) Mold exposure testing was carried out using a modified version of the ASTM: D 3273-94 procedure. Exposure of the OSB samples to mold was done in an experimental chamber consisting of a 597 mm×311 mm×413 mm plastic container tilted on its side to give a 45° roof angle to prevent condensate dripping on the samples and filled with 2-3 inches of water. The water was heated to 32.5° C. (±1° C.), using a thermostatically controlled heating coil. A 292 mm×394 mm×133 mm plastic bowl was filled to within 3 inches from the top with a mixture of damp potting soil and unsterile soil collected from outdoors to provide an inoculum source for mold. The bowl was floated in the plastic container. The boards were placed on a plastic mesh above the inoculum source. The blocks were inverted at one week intervals. The test ran for a duration of 4 weeks.
After the four week mold exposure, the samples were examined visually and rated for mold formation on a scale of 0 to 4, with 0 representing no mold formation (i.e. complete control) and 4 representing complete coverage or overgrowth of the sample by mold. […] With regard to the ratio of high solubility borate to low solubility borate, the samples containing 40% soluble borate (i.e. 60% zinc borate) provided a significant improvement over the samples containing 0% soluble borate (i.e. 100% zinc borate), on average.

mold [3] = test: Mold exposure test on aspen OSB with water repellant (Example 3); format: cell-based; details: scale 0-4; for Mold Formation Rating: 4 weeks, OSB pMDI 6%
Description: as §1
Another set of mold tests similar to Example 2 was carried out. Test samples consisted of Aspen OSB bonded with pMDI resin at a 6% loading. The OSB samples were treated with a hydrophobic resin 1% EW-58S, manufactured by Borden, which served as a water repellant. The preservative treated OSB samples contained either zinc borate alone or a mixture of zinc borate and DOT, at a 60/40 weight ratio. Target loadings of preservative were 0.05, 0.10 and 0.20% by weight in the OSB samples . The OSB test samples were cut into 76 mm×102 mm panels for use in the mold testing. Mold exposure testing was carried out using essentially the same method described in Example 2, except that the water was heated to 30.5° C. (±1° C.). The relative humidity within the environmental chamber was monitored and maintained at .95 to 99% with an average temperature of 27 to 30° C.
After the four week mold exposure, the samples were examined visually and rated for mold growth on a scale of 0 to 4, as in Example 2.

[4] = test system: Coniophora puteana (brown rot); test: EN113 decay test of wood composites; format: cell-based; details: wood composite PF face/pMDI core; preservative loading 0.1% by weight; 12 weeks fungal decay exposure; eight samples
Description: Wood composite samples were made having a phenol-formaldehyde (PF) resin face and a diphenylmethanediisocyanate (pMDI) resin core. Some of the samples included a combination of the zinc borate, 2ZnO·3B2O3·3.5H2O, (ZB) and disodium octaborate tetrahydrate (DOT) and others contained ZB alone, while still others contained no wood preservative. The ZB/DOT combination formulations contained 60% ZB by weight and 40% DOT. The preservative compositions were added to the wood composite samples at a loading of 0.1% by weight of the wood composite. The samples were cut to 50 mm×25 mm×20 mm before testing. A total of eight samples from each treatment set were subjected to decay testing.
A total of eight samples from each treatment set were tested according to a standard European decay test protocol known as EN113. The samples were first sealed in plastic bags and gamma irradiated at a level of at a level of 2.0 Mrad using a ^60Co source to ensure sterilization prior to mono-culture decay testing.
Aqueous solutions of 2.0% malt and 2.0% agar were prepared and then autoclaved at 120° C. for 30 minutes. […]
The decay results are shown in Table 1, expressed as average percent weight loss of the wood composite samples after 12 weeks of fungal decay exposure.

Substance: 2ZnO·3B2O3·3.5H2O [ZB only]
- Termites Ratings ([1]; scale 0 (destroyed) to 10 (perfect), board pMDI, 3 mos. exposure, average of 10 replicates): 10
- Termites Ratings ([1]; scale 0-10, board PF/pMDI, 3 mos. exposure): 10
- Termites Ratings ([1]; scale 0-10, board PF/pMDI, 9 mos. exposure): 9.5
- Termites Ratings ([1]; scale 0-10, board PF/pMDI, 15 mos. exposure): 9.7
- Termites Ratings ([1]; scale 0-10, board pMDI, 9 mos. exposure): 9.8
- Termites Ratings ([1]; scale 0-10, board pMDI, 15 mos. exposure): 9.9
- Mold Formation Rating (mold [2]; scale 0 (no mold) to 4 (complete coverage), target borate loading 0.18 % BAE, board pMDI-6%, measured at Edges): 2.00
- Mold Formation Rating (mold [2]; scale 0-4, target borate loading 0.18 % BAE, board PF-pMDI, measured at Edges): 2.00
- Mold Formation Rating (mold [2]; scale 0-4, target borate loading 0.18 % BAE, board PF-pMDI, measured at Faces): 1.25
- Mold Formation Rating (mold [2]; scale 0-4, target borate loading 0.18 % BAE, board pMDI-6%, measured at Faces): 0.75
- Mold Formation Rating (mold [2]; scale 0-4, target borate loading 0.88 % BAE, board PF-pMDI, measured at Edges): 1.50
- Mold Formation Rating (mold [2]; scale 0-4, target borate loading 0.88 % BAE, board PF-pMDI, measured at Faces): 0.75
- Mold Formation Rating (mold [2]; scale 0-4, target borate loading 0.88 % BAE, board pMDI-6%, measured at Edges): 0.75
- Mold Formation Rating (mold [2]; scale 0-4, target borate loading 0.88 % BAE, board pMDI-6%, measured at Faces): 0.00
- Mold Formation Rating, Average (mold [2]; scale 0-4, 0.18 % BAE, Edges): 2.00
- Mold Formation Rating, Average (mold [2]; scale 0-4, 0.18 % BAE, Faces): 1.00
- Mold Formation Rating, Average (mold [2]; scale 0-4, 0.88 % BAE, Edges): 1.13
- Mold Formation Rating, Average (mold [2]; scale 0-4, 0.88 % BAE, Faces): 0.38
- Mold Formation Rating (mold [3]; target borate loading 0.05 % BAE, Edges): 1.00
- Mold Formation Rating (mold [3]; target borate loading 0.05 % BAE, Faces): 1.00
- Mold Formation Rating (mold [3]; target borate loading 0.10 % BAE, Edges): 3.33
- Mold Formation Rating (mold [3]; target borate loading 0.10 % BAE, Faces): 2.67
- Mold Formation Rating (mold [3]; target borate loading 0.20 % BAE, Edges): 2.33
- Mold Formation Rating (mold [3]; target borate loading 0.20 % BAE, Faces): 1.00
- Mold Formation Rating, Average (mold [3]; average over loadings 0.05-0.20 % BAE, Faces and Edges): 1.89
- Average % Wt. Loss [4]: 15.98%
